From patent US8916553B2 (Bristol-Myers Squibb Company, priority 2010, dated 2014)

Assays:
Human CYP17 = Human CYP17 (Homo sapiens (Human), UniProt P05093); experiment: CYP17 Total SPA Assay; assay type: biochemical; conditions: microsomes from HEK2 cells stably transfected with CYP17; 3H-Pregnenolone 1 uM; NADPH 2 mM; 45 minutes at room temperature
Method: CYP17 Total SPA Assay The assays were performed in U-bottom 384-well optiplates. […] The reaction was initiated by the combination of the microsomes and substrates in wells containing compound. The reaction was incubated at room temperature for 45 minutes and terminated by adding 7.5 μl of 0.2N HCl to each well. […] The plate was sealed and incubated overnight with shaking at 4° C. The beads were allowed to settle in the plate for 1 hour and the plate read on a TOPCOUNT® (Perkin-Elmer) plate reader. […] The final concentration of reagents in the assays are NADPH, 2 mM; 3H-Pregnenolone, 1 uM; microsomes, 1.25 ug/ml; […] Dose response curves were generated to determine the concentration required inhibiting 50% of enzyme activity (IC50). Compounds were dissolved at 10 mM in dimethylsulfoxide (DMSO) and evaluated at eleven concentrations, each in duplicate. IC50 values were derived by non-linear regression analysis. Table 22 below lists the IC50 values for the following Examples of this invention measured in the Total CYP17 SPA Assay hereinabove.

testosterone levels = experiment: 1-Day Cyno PK/PD Study; assay type: in vivo; conditions: cynomolgus monkeys; single oral dose of 5 mg/Kg in 80% PEG-400/water; blood samples over a 24 hour period (FIG. 1)
Method: 1-Day Cyno PK/PD Study Protocol
Animals: All procedures involving animals and their care were conducted in conformity with the guidelines that are in compliance with the Bristol-Myers Squibb Institutional Animal Care and Use Committee. Fully mature male cynomolgus monkeys (>4 yrs of age; 5-6 kg) were from an in-house colony. All the monkeys used had chronically implanted femoral vein access ports. For oral studies, all animals were fasted overnight prior to dosing and were fed 4 hr after dosing. All animals had free access to water and were conscious throughout the study.
Drug: For all oral pharmacokinetic studies in cynomolgus monkeys, the tested compound was formulated in polyethylene glycol (PEG 400): water (80:20, v:v) at concentrations of 1-5 mg/mL. […]
Sampling: Blood samples were collected from the femoral port, at 15, 30, and 45 min, and 1, 2, 4, 6, 8, 12, 24, 30, and 48 hr after oral administration. […] The plasma fraction was immediately separated by centrifugation (14,000 rpm, 10 min, 4° C.), frozen on dry ice, and stored at −20° C. until the samples were analyzed.
Analysis of Tested Compound: Plasma samples were thawed and treated with two volumes of acetonitrile containing internal standard. After centrifugation to remove precipitated proteins, an aliquot of supernatant was analyzed by LC/MS/MS. […]

Human CYP17, sequence (P05093 whole entry): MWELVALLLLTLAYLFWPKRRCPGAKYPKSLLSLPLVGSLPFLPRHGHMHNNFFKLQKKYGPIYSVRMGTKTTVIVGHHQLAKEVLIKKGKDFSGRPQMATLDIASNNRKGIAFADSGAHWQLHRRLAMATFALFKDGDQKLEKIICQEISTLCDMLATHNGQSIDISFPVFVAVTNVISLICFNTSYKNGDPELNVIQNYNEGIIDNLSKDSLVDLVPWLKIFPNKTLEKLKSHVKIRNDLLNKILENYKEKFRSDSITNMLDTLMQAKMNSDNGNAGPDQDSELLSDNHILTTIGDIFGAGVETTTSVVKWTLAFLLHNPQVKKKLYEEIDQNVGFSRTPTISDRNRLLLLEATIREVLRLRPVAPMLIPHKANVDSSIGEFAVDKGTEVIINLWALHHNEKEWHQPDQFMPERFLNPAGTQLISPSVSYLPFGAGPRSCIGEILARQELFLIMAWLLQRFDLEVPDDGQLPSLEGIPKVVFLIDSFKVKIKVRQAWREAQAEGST

IC50 (Human CYP17): 2.5 nM
SMILES: COc1cc(NS(C)(=O)=O)ccc1-c1cnccc1C [Example 217, N-(3-methoxy-4-(4-methyl-3-pyridinyl)phenyl)methanesulfonamide]
testosterone levels (testosterone levels): reduced
